From patent US5643871A, “Antitumor antibiotics” (Bristol-Meyers Squibb Company, priority 1993, dated 1997)
Starred links: 1 amine or outer side, 2 acyl side, 3 side chain; linkers in the order of their positions; H or OH if unused. Positions of bridges follow the written chain, without caps; N, C: chain ends. Non-standard residues stand in square brackets, D forms with d. Residues, ends and D or L forms follow the SMILES beside them. Chains are numbered I, II in the order given. ξ: configuration not given here. *: point of attachment. X2 = CC(C)C(=O)OC1CC=NN([*:1])C1C(=O)[*:2]; ξNMeVal(3-OH) = CNC(C(=O)O)C(C)(C)O; X1 = COc1ccc2nc(C(=O)*)cnc2c1; Sar = CNCC(=O)O

Experiments:
[1] = system: P388 murine leukemia; test: In vivo antitumor activity against P388 leukemia (ip tumor implant / ip drug); conditions: once daily for five days; for % T/C: >=125 considered significant; for Median Survival Time: CDF1 female mice, ip P388;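 on all read-outs here: dosing started the day after tumor implantation, and %T/C expresses median survival of treated mice relative to the saline-treated control group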
Description: CDF1 female mice were implanted intraperitoneally with a tumor inoculum of 10^6 ascites cells of P388, and treated with various doses of test compounds. The compounds were administered intraperitoneally once daily for five consecutive days starting on the day after tumor implantation. The ratio of median survival time for a treated group and that for the saline-treated control group was determined and expressed as %T/C.

[2] = system: P388 leukemia; test: iv/iv P388 leukemia protocol; format: in vivo, mice; conditions: 0.010 mg/kg/dose iv, once daily for five days; leukemic cells implanted iv
[3] = system: Madison 109 (M109) lung carcinoma; test: Madison 109 lung carcinoma, ip/ip model; format: in vivo, mice; conditions: 0.05 mg/kg/dose ip on days 2, 6 and 10; ip tumor implantation
[4] = system: Madison 109 (M109) lung carcinoma; conditions: sc tumor implantation, intravenous drug administration on days 2, 6 and 10
Description: 299- (1981). Briefly, CDF1 female mice were implanted intraperitoneally (ip) with 0.5 ml or subcutaneously (sc) with 0.1 ml of a 2% brei (w/v) of M109 lung carcinoma. The test compound was administered intraperitoneally (in ip tumor implant groups) or intravenously (in sc tumor implant groups) at various dosage levels to groups of mice on days 2, 6 and 10 after tumor implantation. The median survival time and %T/C values were determined as described above.

| Structure (SMILES) | Body Weight Change on Day 4 ([1]; dose 0.02 mg/kg/day ip) | % T/C ([1]; dose 0.02 mg/kg/day ip) | Median Survival Time ([1]; dose 0.02 mg/kg/day ip) | Body Weight Change on Day 4 ([1]; dose 0.05 mg/kg/day ip) | % T/C ([1]; dose 0.05 mg/kg/day ip) | Median Survival Time ([1]; dose 0.05 mg/kg/day ip) | Body Weight Change on Day 4 ([1]; dose 0.2 mg/kg/day ip) | % T/C ([1]; dose 0.2 mg/kg/day ip) | Median Survival Time ([1]; dose 0.2 mg/kg/day ip) | Body Weight Change on Day 4 ([1]; dose 0.7 mg/kg/day ip) | % T/C ([1]; dose 0.7 mg/kg/day ip) | Median Survival Time ([1]; dose 0.7 mg/kg/day ip) | % T/C ([1]; dose 2.0 mg/kg/day ip) | Median Survival Time ([1]; dose 2.0 mg/kg/day ip) | further results |
| --- | --- | --- | --- | --- | --- | --- | --- | --- | --- | --- | --- | --- | --- | --- | --- |
| CCC(=O)OC1CC=NN2C(=O)C(NC(=O)c3cnc4cc(OC)ccc4n3)COC(=O)C(C(C)(C)O)N(C)C(=O)CN(C)C(=O)CNC(=O)C3C(OC(=O)CC)CC=NN3C(=O)C(NC(=O)c3cnc4cc(OC)ccc4n3)COC(=O)C(C(C)(C)O)N(C)C(=O)CN(C)C(=O)CNC(=O)C12 (stereo not drawn) [BMS-181060] | – | – | – | – | – | – | – | – | – | – | – | – | – | – | Body Weight Change on Day 4 ([1]; dose 0.003 mg/kg/day ip): 1.0; % T/C ([1]; dose 0.003 mg/kg/day ip): 105%; Median Survival Time ([1]; dose 0.003 mg/kg/day ip): 11.5; Body Weight Change on Day 4 ([1]; dose 0.01 mg/kg/day ip): 0.1; % T/C ([1]; dose 0.01 mg/kg/day ip): 127%; Median Survival Time ([1]; dose 0.01 mg/kg/day ip): 14.0; Body Weight Change on Day 4 ([1]; dose 0.03 mg/kg/day ip): 0.0; % T/C ([1]; dose 0.03 mg/kg/day ip): 127%; Median Survival Time ([1]; dose 0.03 mg/kg/day ip): 14.0; Body Weight Change on Day 4 ([1]; dose 0.09 mg/kg/day ip): -0.9; % T/C ([1]; dose 0.09 mg/kg/day ip): 91%; Median Survival Time ([1]; dose 0.09 mg/kg/day ip): 10.0; Body Weight Change on Day 4 ([1]; dose 0.27 mg/kg/day ip): 0.7; % T/C ([1]; dose 0.27 mg/kg/day ip): Tox; Median Survival Time ([1]; dose 0.27 mg/kg/day ip): Tox; % T/C ([1]; dose 0.81 mg/kg/day ip): Tox; Median Survival Time ([1]; dose 0.81 mg/kg/day ip): Tox |
| COc1ccc2nc(C(=O)NC3COC(=O)C(C(C)(C)O)N(C)C(=O)CN(C)C(=O)CNC(=O)C4C(OC(=O)C(C)C)CC=NN4C(=O)C(NC(=O)c4cnc5cc(OC)ccc5n4)COC(=O)C(C(C)(C)O)N(C)C(=O)CN(C)C(=O)CNC(=O)C4C(OC(=O)C(C)C)CC=NN4C3=O)cnc2c1 (stereo not drawn) [BMY-45012] (I: X1-S[X2]G[Sar][ξNMeVal(3-OH)] / II: X1-S[X2]G[Sar][ξNMeVal(3-OH)]; ester I:1-II:C, I:C-II:1; configuration not given here) | -0.4 | 115% | 11.5 | 0.3 | 145% | 14.5 | -0.7 | 145% | 14.5 | -0.1 | 95% | 9.5 | – | – | maximum %T/C [2]: 113%; maximum %T/C [3]: 131%; antitumor activity (%T/C) [4]: not significantly active |
| COc1ccc2nc(C(=O)NC3COC(=O)C(C(C)(C)O)N(C)C(=O)CN(C)C(=O)CNC(=O)C4C(OC(=O)C(C)C)CC=NN4C(=O)C(NC(=O)c4cnc5cc(OC)ccc5n4)COC(=O)C(C(C)(C)O)N(C)C(=O)CN(C)C(=O)CNC(=O)C4C(OC(=O)CC(C)C)CC=NN4C3=O)cnc2c1 (stereo not drawn) [BMY-46404] | -0.1 | 130% | 13.0 | 0.2 | 140% | 14.0 | -0.0 | 135% | 13.5 | -0.3 | 165% | 16.5 | 80% | 8.5 | Body Weight Change on Day 4 ([1]; dose 2.0 mg/kg/day ip): -0.7 |
| COc1ccc2nc(C(=O)NC3COC(=O)C(C(C)(C)O)N(C)C(=O)CN(C)C(=O)CNC(=O)C4C(OC(=O)CC(C)C)CC=NN4C(=O)C(NC(=O)c4cnc5cc(OC)ccc5n4)COC(=O)C(C(C)(C)O)N(C)C(=O)CN(C)C(=O)CNC(=O)C4C(OC(=O)CC(C)C)CC=NN4C3=O)cnc2c1 (stereo not drawn) [BMY-46405] | -0.8 | 140% | 14.0 | -0.8 | 175% | 17.5 | -3.4 | Tox | Tox | – | Tox | Tox | Tox | Tox | – |
| CCC(=O)OC1CC=NN2C(=O)C(NC(=O)c3cnc4cc(OC)ccc4n3)COC(=O)C(C(C)(C)O)N(C)C(=O)CN(C)C(=O)CNC(=O)C3C(OC(C)=O)CC=NN3C(=O)C(NC(=O)c3cnc4cc(OC)ccc4n3)COC(=O)C(C(C)(C)O)N(C)C(=O)CN(C)C(=O)CNC(=O)C12 (stereo not drawn) [BMY-46407] | 1.0 | 120% | 12.0 | -0.0 | 135% | 13.5 | -0.01 | Tox | Tox | – | Tox | Tox | Tox | Tox | – |
| CCC(=O)OC1CC=NN2C(=O)C(NC(=O)c3cnc4cc(OC)ccc4n3)COC(=O)C(C(C)(C)O)N(C)C(=O)CN(C)C(=O)CNC(=O)C3C(OC(=O)C(C)C)CC=NN3C(=O)C(NC(=O)c3cnc4cc(OC)ccc4n3)COC(=O)C(C(C)(C)O)N(C)C(=O)CN(C)C(=O)CNC(=O)C12 (stereo not drawn) [BMY-46408] | -0.1 | 150% | 15.0 | -0.4 | 155% | 15.5 | 0.2 | 155% | 15.5 | 0.3 | 85% | 8.5 | Tox | Tox | – |
| COc1ccc2nc(C(=O)NC3COC(=O)C(C(C)(C)O)N(C)C(=O)CN(C)C(=O)CNC(=O)C4C(OC(=O)C(C)C)CC=NN4C(=O)C(NC(=O)c4cnc5cc(OC)ccc5n4)COC(=O)C(C(C)(C)O)N(C)C(=O)CN(C)C(=O)CNC(=O)C4C(OC(C)=O)CC=NN4C3=O)cnc2c1 (stereo not drawn) [BMY-46572] | – | – | – | – | – | – | – | – | – | – | – | – | – | – | Body Weight Change on Day 4 ([1]; dose 0.003 mg/kg/day ip): 0.4; % T/C ([1]; dose 0.003 mg/kg/day ip): 110%; Median Survival Time ([1]; dose 0.003 mg/kg/day ip): 11.0; Body Weight Change on Day 4 ([1]; dose 0.01 mg/kg/day ip): 0.5; % T/C ([1]; dose 0.01 mg/kg/day ip): 125%; Median Survival Time ([1]; dose 0.01 mg/kg/day ip): 12.5; Body Weight Change on Day 4 ([1]; dose 0.03 mg/kg/day ip): -0.0; % T/C ([1]; dose 0.03 mg/kg/day ip): 140%; Median Survival Time ([1]; dose 0.03 mg/kg/day ip): 14.0 |
